Test results: patent US20070213505A1, “Solution Synthesis of Peptide Cell Growth Stimulators” (priority 2006, published 2007)
Peptide text beside a SMILES is read from it.

Assays:
[1] = system: CHO line; test: Effect of Gly-Lys-Gly on growth and productivity of a CHO line in chemically defined CHO medium; type: cell-based, Chinese Hamster; details: CHO medium supplemented at the same concentrations as in the SP2/0 test; results not shown
Source text: In a previous experiment, a proprietary chemically defined Chinese Hamster Ovary (CHO) medium was supplemented with both the Centocor and Bachem-made peptides at the same concentrations above.

[2] = system: transfectoma cell line which is an SP2/0 derived line engineered to produce an anti-cytokine monoclonal antibody (mAb); test: Effect of Gly-Lys-Gly on growth and productivity of a transfectoma cell line in MET1.5 shaker flask culture; type: cell-based; details: for viable cell density: unsupplemented control 2.0×10^6
Experimental: Two preparations of the tri-peptide, Gly-L-Lys-Gly, were compared for their effect on growth and productivity of a transfectoma cell line which is an SP2/0 derived line engineered to produce an anti-cytokine monoclonal antibody (mAb). The final lot of GKG prepared in Example V was compared to commercial prepared GKG purchased from Bachem (King of Prussia, Pa.).
Cells were cultured in a proprietary defined medium, MET1.5, supplemented with 7.0 mM glutamine, 10 g/L MHX, and 2.0 g/L sodium bicarbonate. The Centocor-made GKG peptide in quantities of 0.35 g/L, 0.70 g/L, and 1.40 g/L were added to 250 mL of MET 1.5 media. The GKG from Bachem was added to 250 mL of MET 1.5 media at concentrations of 0.38 g/L, 0.76g/L, and 1.5 g/L. The cells were cultured in 125 mL shaker flasks and were rotating at 125 RPM. The culture was also incubated at 37° C. in a humidified atmosphere with 5% CO2 and 95% air. The culture volume was 40 mL. Two control flasks and two flasks per peptide concentration were sampled at days zero, one, two, three, four, five, and six for viable cell density and antibody determination.
The cultures were inoculated at a density of 2×10^5 cells/mL and were passaged three times (split every three days). On the third passage they were incubated until the decline phase.
Viable cells and dead cells were calculated by trypan exclusion with the Cedex cell counter. The mAb concentrations were determined by immunoturbidity via the IMMAGE 800 nephelometer (Beckman, Coulter, Brea, Calif.). The effects of the Gly-Lys-Gly peptide on antibody secretion by a production cell line was gauged by calculating integral viable density (IVCC), and titer. IVCC was calculated by integrating the areas under the growth curves. Specific antibody productivity was calculated as the antibody production per day (titer) divided by IVCC.

| Compound | effect on growth and productivity [1] | viable cell density ([2]; 0.38 g/L peptide in MET1.5, mean of two samples) | titer ([2]; 0.76 g/L peptide in MET1.5, rose from 117 mg/L without supplement, mean of two samples) [mg/L] | increase in titer (concentration of mAb) ([2]; 1.5 g/L peptide in MET1.5) [%] | viable cell density and percent viability increases ([2]; 1.5 g/L peptide in MET1.5) | viable cell density ([2]; 0.35 g/L peptide in MET1.5, mean of two samples) | enhancement of the product yield or viable cell density ([2]; 0.7 g/L peptide in MET1.5) | increase in titer (concentration of mAb) ([2]; 1.4 g/L peptide in MET1.5) [%] | viable cell density and percent viability increases ([2]; 1.4 g/L peptide in MET1.5) |
| --- | --- | --- | --- | --- | --- | --- | --- | --- | --- |
| Gly-L-Lys-Gly [Bachem-made-peptide] | minimal to no effect | 2.6×10^6 viable cells/mL | 137 | 34 | could not be observed |  |  |  |  |
| NCCCC[C@H](NC(=O)CN)C(=O)NCC(=O)O [Centocor-made peptide, Glycyl-L-Lysyl-Glycine] (H-Gly-Lys-Gly-OH) | minimal to no effect |  |  |  |  | 2.5×10^6 viable cells/mL | No enhancement | 21 | could not be observed |
